# Source: ChEMBL document CHEMBL5331099, “Chemical scaffold recycling: Structure-guided conversion of an HIV integrase inhibitor into a potent influenza virus RNA-dependent RNA polymerase inhibitor designed to minimize resistance potential” (Eur J Med Chem, 2023)
# Assay: Binding affinity to Influenza A virus PA endonuclease I39T mutant assessed as dissociation constant by MST assay
row,SMILES,Kd
1,Nc1ncnc2c1ncn2CCNC(=O)c1nc(-c2ccccc2C(F)(F)F)[nH]c(=O)c1O,16 nM
2,O=C1c2c(O)c(=O)ccn2N([C@@H]2c3ccccc3SCc3c2ccc(F)c3F)C2COCCN12 (stereo partly drawn),9300 nM
3,COc1cnccc1CCNC(=O)c1nc(-c2ccccc2C(F)(F)F)[nH]c(=O)c1O,32 nM
